# Experimental data as given in US20250163043A1 (TRANSTHERA SCIENCES (NANJING), INC., priority 2021, published 2025).
# Biological target: CDK9/CycT1 (Homo sapiens, UniProt P50750)
# Test: ADP-Glo kinase assay on CDK enzymatic activity, CDK9/CycT1
# Assay type: biochemical
# Settings: 10 concentrations from 10 μM, 4-fold, 60 min room temperature
# Excerpt: Test samples: the compounds of the present invention, having structures shown above.
# ADP-Glo Kinase Assay (ADP-Glo kinase kit), DMSO (dimethyl sulfoxide), CDK9/CycT1 (cyclin-dependent kinase 9/cyclin T1), CDK tide (cyclin-dependent kinase substrate peptide fragments), CDK1/CycE1 (cyclin-dependent kinase 1/cyclin E1), CDK2/CycA2 (cyclin-dependent kinase 2/cyclin A2), CDK3/CycE1 (cyclin-dependent kinase 3/cyclin E1), CDK4/CycD3 (cyclin-dependent kinase 4/cyclin D3), CDK5/p25NCK (cyclin-dependent kinase 5/p25), and AZD 4573.
# A 384-well white plate, a 96-well plate, a microplate oscillator, a centrifuge, and a microplate reader.
# The compounds were dissolved in DMSO and diluted 4-fold in the 96-well plate to obtain stock solutions with 10 concentration gradients, and added into a 384-well plate system to obtain a series of 10 concentration gradients of compound solutions with final concentrations of 10 μM starting and 4-fold gradient decreasing. 1 μM AZD4573 was used as compound positive control (PC) and 0.5% DMSO as solvent vehicle control (VC), ten duplicated wells each for PC and VC.
# 1 μL of compound solution and 2 μL of 2× kinase solution were transferred to each well, and the plate was centrifuged at 1000 g for 30 s and left at room temperature for 10 min. A mixture of 2× substrate and ATP was prepared in 1× kinase buffer. The reaction was started after adding 2 μL of substrate and ATP into the plate. The plate was centrifuged at 1000 g for 30 s. The assay plate was closed and left at room temperature for 60 min. The reaction system was added with 4 μL of ADP Glo reagent, centrifuged at 1000 rpm for 1 min, and incubated at room temperature for 40 min. The reaction system was added with 8 μL of kinase assay reagent, centrifuged at 1000 rpm for 1 min and incubated at room temperature for 40 min. The […] was read on Biotek.
# The inhibition rate was calculated according to the following formula: […]
# Lumcmpd: compound fluorescence reading; Lumpositive: average value of the fluorescence reading of positive compound control; Lumvehicle: average value of the fluorescence reading of solvent vehicle control.
# IC50 values were fitted using GraphPad 7.0 based on inhibition rates of compounds at different concentrations.
# Sequence of CDK9/CycT1 (P50750 whole entry): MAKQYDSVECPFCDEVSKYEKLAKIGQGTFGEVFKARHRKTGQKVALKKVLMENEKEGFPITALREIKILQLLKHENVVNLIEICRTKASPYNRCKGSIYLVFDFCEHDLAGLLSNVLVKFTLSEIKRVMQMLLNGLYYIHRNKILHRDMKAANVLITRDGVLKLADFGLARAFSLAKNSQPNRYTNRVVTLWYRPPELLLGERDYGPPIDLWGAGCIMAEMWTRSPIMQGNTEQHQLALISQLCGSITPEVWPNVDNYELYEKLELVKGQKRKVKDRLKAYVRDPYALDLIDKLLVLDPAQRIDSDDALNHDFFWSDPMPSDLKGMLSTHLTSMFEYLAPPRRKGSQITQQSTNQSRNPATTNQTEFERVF
# Sequence of CDK9/CycT1 (O60563 whole entry partner): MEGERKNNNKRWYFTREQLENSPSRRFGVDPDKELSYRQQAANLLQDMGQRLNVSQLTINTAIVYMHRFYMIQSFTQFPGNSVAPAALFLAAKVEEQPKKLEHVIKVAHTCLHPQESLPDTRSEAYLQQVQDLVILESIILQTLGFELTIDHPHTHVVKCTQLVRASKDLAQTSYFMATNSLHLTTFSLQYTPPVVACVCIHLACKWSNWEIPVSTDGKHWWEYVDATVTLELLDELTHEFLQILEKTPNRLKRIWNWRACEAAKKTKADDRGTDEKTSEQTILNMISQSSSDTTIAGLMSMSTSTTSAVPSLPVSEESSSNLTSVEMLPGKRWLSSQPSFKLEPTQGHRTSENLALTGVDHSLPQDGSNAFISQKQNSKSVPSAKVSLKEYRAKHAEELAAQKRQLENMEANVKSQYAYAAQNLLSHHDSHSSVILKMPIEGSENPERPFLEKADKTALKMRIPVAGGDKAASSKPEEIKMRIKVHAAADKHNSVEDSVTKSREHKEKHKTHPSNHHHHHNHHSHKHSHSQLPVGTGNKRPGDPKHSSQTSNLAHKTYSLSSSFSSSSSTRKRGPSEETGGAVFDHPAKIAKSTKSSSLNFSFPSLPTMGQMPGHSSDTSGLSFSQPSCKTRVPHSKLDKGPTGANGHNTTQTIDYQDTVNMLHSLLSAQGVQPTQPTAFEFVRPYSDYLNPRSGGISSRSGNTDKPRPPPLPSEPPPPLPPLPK
row,SMILES,IC50 [nM]
1,"CCNc1nc(C#N)cc2cnc(N[C@H]3C[C@H](NC)C3)nc12 [Compound C43, 8-(ethylamino)-2-(((1r,3r)-3-(methylamino)cyclobutyl)amino)pyrido[3,4-d]pyrimidine-6-carbonitrile]",1
2,"CCC(CC)c1nc(C#N)cc2cnc(N[C@H]3CCCNC3)cc12 [Compound 188, (S)-1-(pentan-3-yl)-7-(piperidin-3-ylamino)-2,6-naphthyridine-3-carbonitrile]",10
3,"CC(C)Nc1nc(C#N)cc2cnc(N[C@@H]3CCCNC3)nc12 [Compound C44, (R)-8-(isopropylamino)-2-(piperidin-3-ylamino)pyrido[3,4-d]pyrimidine-6-carbonitrile]",20
4,"CC(C)(C)Nc1nc(C#N)cc2cnc(N[C@H]3C[C@](C)(N)C3)nc12 [Compound C34, 2-(((1r,3r)-3-amino-3-methylcyclobutyl)amino)-8-(tert-butylamino)pyrido[3,4-d]pyrimidine-6-carbonitrile]",1
5,"CC(C)Nc1nc(C#N)cc2cnc(N[C@H]3C[C@H](N4CCOCC4)C3)nc12 [Compound C21, 8-(isopropylamino)-2-(((1r,3r)-3-morpholinocyclobutyl)amino)pyrido[3,4-d]pyrimidine-6-carbonitrile]",4
6,"CC(C)Oc1nc(C#N)cc2cnc(N[C@H]3CCCNC3)nc12 [Compound C49, (S)-8-isopropoxy-2-(piperidin-3-ylamino)pyrido[3,4-d]pyrimidine-6-carbonitrile]",20
7,"CCOc1nc(C#N)cc2cnc(N[C@H]3C[C@H](N)C3)nc12 [Compound C47, 2-(((1r,3r)-3-aminocyclobutyl)amino)-8-ethoxypyrido[3,4-d]pyrimidine-6-carbonitrile]",24
8,"CC(C)Nc1nc(C#N)cc2cnc(N[C@H]3CCCC[C@H]3O)cc12 [Compound 160, 7-(((1S,2R)-2-hydroxycyclohexyl)amino)-1-(isopropylamino)-2,6-naphthyridine-3-carbonitrile]",26
9,"CC(C)Nc1nc(C#N)cc2cnc(N[C@H]3C[C@](C)(O)C3)nc12 [Compound C11, 2-(((1r,3r)-3-hydroxy-3-methylcyclobutyl)amino)-8-(isopropylamino)pyrido[3,4-d]pyrimidine-6-carbonitrile]",1
10,"CC(C)Nc1nc(C#N)cc2cnc(N[C@@H]3CCCC[C@@H]3O)cc12 [Compound 161, 7-(((1R,2S)-2-hydroxycyclohexyl)amino)-1-(isopropylamino)-2,6-naphthyridine-3-carbonitrile]",14
11,"CO[C@H]1C[C@H](Nc2ncc3cc(C#N)nc(NC(C)C)c3n2)C1 [Compound C12, 8-(isopropylamino)-2-(((1r,3r)-3-methoxycyclobutyl)amino)pyrido[3,4-d]pyrimidine-6-carbonitrile]",2
12,"N#Cc1cc2cnc(N[C@H]3C[C@H](N)C3)nc2c(N[C@@H]2CCCOC2)n1 [Compound C39, 2-(((1r,3R)-3-aminocyclobutyl)amino)-8-(((R)-tetrahydro-2H-pyran-3-yl)amino)pyrido[3,4-d]pyrimidine-6-carbonitrile]",1
13,"CSc1nc(C#N)cc2cnc(N[C@H]3CCCNC3)cc12 [Compound 192, (S)-1-(methylthio)-7-(piperidin-3-ylamino)-2,6-naphthyridine-3-carbonitrile]",11
14,"CC(C)Nc1nc(C#N)cc2cnc(N[C@H]3CCCC[C@@H]3O)cc12 [Compound 156, 7-(((1S,2S)-2-hydroxycyclohexyl)amino)-1-(isopropylamino)-2,6-naphthyridine-3-carbonitrile]",14
15,"N#Cc1cc2cnc(N[C@H]3C[C@@H](O)C3)cc2c(N[C@@H]2CCOC2)n1 [Compound 176, 7-(((1s,3S)-3-hydroxycyclobutyl)amino)-1-(((R)-tetrahydrofuran-3-yl)amino)-2,6-naphthyridine-3-carbonitrile]",3
16,"N#Cc1cc2cnc(N[C@H]3CCCNC3)cc2c(OC2CCC2)n1 [Compound 199, (S)-1-cyclobutoxy-7-(piperidin-3-ylamino)-2,6-naphthyridine-3-carbonitrile]",4
17,"CC(C)Nc1nc(C#N)cc2cnc(N[C@@H]3CCNC3=O)nc12 [Compound 124, (R)-8-(isopropylamino)-2-((2-oxopyrrolidin-3-yl)amino)pyrido[3,4-d]pyrimidine-6-carbonitrile]",26
18,"CC(C)Nc1nc(C#N)cc2cnc(N[C@H]3C[C@@]4(CCN4)C3)nc12 [Compound C37, 2-(((4r,6s)-1-azaspiro[3.3]heptan-6-yl)amino)-8-(isopropylamino)pyrido[3,4-d]pyrimidine-6-carbonitrile]",2
19,"N#Cc1cc2cnc(N[C@H]3CCCNC3)cc2c(NC2COC2)n1 [Compound 182, (S)-1-(oxetan-3-ylamino)-7-(piperidin-3-ylamino)-2,6-naphthyridine-3-carbonitrile]",15
20,"CC(C)Nc1nc(C#N)cc2cnc(NC3CCN(CC(=O)N(C)C)CC3)nc12 [Compound C3, 2-(4-((6-cyano-8-(isopropylamino)pyrido[3,4-d]pyrimidin-2-yl)amino)piperidin-1-yl)-N,N-dimethylacetamide]",27
21,"CC(C)(C)Nc1nc(C(F)F)cc2cnc(N[C@H]3C[C@@H](N)C3)cc12 [Compound 203, N^7-((1s,3s)-3-aminocyclobutyl)-N^1-(tert-butyl)-3-(difluoromethyl)-2,6-naphthyridine-1,7-diamine]",1
22,"CCOc1nc(C#N)cc2cnc(N[C@H]3CCCNC3)cc12 [Compound 198, (S)-1-ethoxy-7-(piperidin-3-ylamino)-2,6-naphthyridine-3-carbonitrile]",12
23,"CC(=O)N1CCN([C@H]2C[C@H](Nc3ncc4cc(C#N)nc(NC(C)C)c4n3)C2)CC1 [Compound C32, 2-(((1r,3r)-3-(4-acetylpiperazin-1-yl)cyclobutyl)amino)-8-(isopropylamino)pyrido[3,4-d]pyrimidine-6-carbonitrile]",4
24,"CC(C)Nc1nc(C(F)F)c(C#N)c2cnc(N[C@H]3CCCNC3)nc12 [Compound 111, (S)-6-(difluoromethyl)-8-(isopropylamino)-2-(piperidin-3-ylamino)pyrido[3,4-d]pyrimidine-5-carbonitrile]",69
25,"N#Cc1cc2cnc(N[C@H]3CCCNC3)cc2c(O[C@H]2CCOC2)n1 [Compound 155, 7-(((S)-piperidin-3-yl)amino)-1-(((S)-tetrahydrofuran-3-yl)oxy)-2,6-naphthyridine-3-carbonitrile]",33
26,"CC(C)Nc1nc(C#N)cc2cnc(N[C@@H]3CCCC[C@H]3O)cc12 [Compound 159, 7-(((1R,2R)-2-hydroxycyclohexyl)amino)-1-(isopropylamino)-2,6-naphthyridine-3-carbonitrile]",22
27,"CC(C)Nc1nc(C#N)cc2cnc(N[C@@H]3CCC[C@H]3N)cc12 [Compound 165, 7-(((1R,2R)-2-aminocyclopentyl)amino)-1-(isopropylamino)-2,6-naphthyridine-3-carbonitrile]",47
28,"CC(C)Nc1nc(C#N)cc2cnc(NC3CCS(=O)(=O)CC3)nc12 [Compound 120, 2-((1,1-dioxidotetrahydro-2H-thiopyran-4-yl)amino)-8-(isopropylamino)pyrido[3,4-d]pyrimidine-6-carbonitrile]",32
